From US20240239762A1, “NOVEL HETEROCYCLIC COMPOUNDS” (FLORATEK PHARMA S.A., priority 2021, published 2024)
“Also recorded” adds a separate entry of the source. Where two headings read alike, the source gives them in different places.

How the values were obtained:
C. elegans [1] = assay: Lifespan assay on the Automated Lifespan Machine; format: in vivo, Caenorhabditis elegans; conditions: 50 μM; for Max life span: 95th percentile of lifespans in each group; for Mean life span: calculated from the area under the survival curve; for Median life span: day 1 set at day 1 of adulthood, time at which 50% of the worms have died
Excerpt: To prevent chemical modification or metabolism of the test article by the food bacteria, worms were fed on a lawn of UV-killed bacteria (UV-i bacteria). An overnight culture of E. coli strain WP-2 was pelleted, washed, filtered, and irradiated. A suspension of UV-i bacteria was spotted on NGM agar containing Streptomycin to inhibit the growth of contaminating bacteria. The quantity and distribution of food bacteria were calibrated to ensure adequate access to food for the duration of assay while maintaining visibility of the worms.
Test compounds were soluble in 100% DMSO. The compounds were dissolved in a working solution and then combined directly with the food bacteria before seeding on agar plates. The food spots are dried slowly, allowing the compound to diffuse into the food bacteria and the agar for at least 24 hours before worms were introduced.
The ALM used by InVivoBiosystems is based on the Caenorhabditis elegans lifespan machine published by Stroustrup et. Al [Stroustrup, N. et al. The Caenorhabditis elegans Lifespan Machine. Nat Methods 10, 665-670 (2013)], with proprietary modifications to improve temperature stability and image acquisition. The scanner unit consisted of a modified EPSON V850 and images were processed and analyzed using the ALM software. The machine time-of-death calls are trained and validated using the “storyboarding” feature of the ALM software.
The lifespan assay was designed and performed according to published and validated methods [Amrit, F. R. G., Ratnappan, R., Keith, S. A. & Ghazi, A. The C. elegans lifespan assay toolkit. Methods 68, 465-475 (2014).] using a modified version of the Automated Lifespan Machine 7.
The lifespan assay was initiated by expanding all replicate groups to more than 1000 worms, then synchronizing by bleaching and allowing larval worms to hatch and arrest. To suppress progeny, worms were transferred to media containing 5-Fluorodeoxyuridine (FUdR) within 54-60 hours post-plating. Worms were inspected 24 and 48 hours after this transfer to confirm infertility. Finally, the worms were inspected for general health and morphology before transferring to scanner plates. The scanner plates were transferred to scanners for automated imaging on day 3 of adulthood.
Plates were immobilized inverted on the bed of an Automated Lifespan Machine which scanned two images per hour of the plates continuously for the next 40 days.
Time of death calls exported from the ALM software was analyzed and plotted using the Lifelines software package developed by Cam Davidson-Pilon et. al [Davidson-Pilon, C et. al. Lifelines survival analysis package. CamDavidsonPilon/lifelines: vo. 25-9.]. Additional analysis was performed using the OASIS2 analysis software6.
Worm movement was tracked from the images acquired by the ALM during the lifespan assay. Worm size and movement features were extracted and analyzed using custom software.

C. elegans [2] = assay: Global gene expression by mRNA sequencing (RNA-Seq), GO enrichment and pathway mapping; format: in vivo, Caenorhabditis elegans
Description: To identify potential mechanisms of action through which SND305 and SND306 could affect aging, global gene expression was analyzed by mRNA sequencing (RNA-Seq). Worms were treated on the same media and conditions as the lifespan assay, then young worms were harvested at adult day 3 and aged worms harvested at adult day 10. Three replicates of treated samples were analyzed.
More than 300 day 1 adult worms per replicate were harvested, cleaned by filtration, and frozen at −80° in Trizol. To extract RNA, samples were thawed, vigorously vortexed, and processed using the Direct-zol RNA Miniprep Kit (Zymo Research). All samples exceeded the threshold for RNA quantity and quality.
The total RNA was then enriched for poly-mRNA using oligo(dT) paramagnetic beads. DNA libraries were then constructed from this input mRNA using the NEBNext Ultra™ II RNA Library Prep Kit. This created a ready-to-sequence dsDNA library that retained the strand-specific information in the original mRNA. These libraries were then further tested by the Qubit for concentration and the Agilent 2100 for library size distribution and quality. In order to properly pool the libraries and load them onto sequencing lanes to ensure the correct number of reads per sample, an even more precise quantification of the library was done via qPCR, and the samples were loaded onto the NovaSeq 6000 platform for a paired-end sequencing run of 150 bp for each end (PE150). The loading concentrations were designed to obtain at least 6.0 Gb (which is the number of billion bases of raw data, determined by the number of reads multiplied by the length of each read).
The raw data set was analyzed for • 1. The distribution of base quality along the length of the sequencing read • 2. The distribution of error rate along the length of the sequencing read • 3. The distribution of A/T/G/C bases along the length of the sequencing read • 4. The distribution of raw data filtering results based on the following three criteria: • a. Removing reads containing adapter sequence • b. Removing reads with N>10% (where N means “base cannot be determined”) • c. Removing reads with a low quality (Qscore<=5) for 50% or more of its total bases
Multidimensional scaling makes it possible to see strong patterns in large, complex data sets by reducing the data to two or three dimensions. When the data is plotted along these few dimensions, the samples form clustered based on their overall similarity to one another. The distance between samples is calculated based on the Biological Coefficient of Variation (BCV). Greater differences were observed between all conditions at Day 10 than at Day 3. To identify genes that are differentially expressed upon treatment with SND305 and SND306, the gene counts for each of the treated samples were compared against the control.
GO enrichment analysis is a common approach that identifies functional groups form lists of differentially expressed genes. Genes are annotated based on functional categories (gene ontologies) that are further categorized by biological process (BP), molecular function (MF), or cellular compartment (CC). A comparison is made between the likelihood of seeing genes in that category (ontology) being enriched or depleted in the list of DEGs when compared to a random selection of genes.
In order to identify which cellular pathways were most likely modulated by treatment with SND305 and SND306 and gain insight into how these pathways might contribute to mechanism of action (MoA), the genes differentially expressed after SND305 and SND306 treatment were mapped to core established longevity pathways from the literature. The mapping was then expanded to intersecting and supporting pathways. This placed the transcriptomic data within the context of well-characterized biological pathways, particularly several related to longevity.

C. elegans strain SD1347 = assay: Age-related sarcopenia model: muscle mitochondrial fragmentation scoring; format: in vivo, Caenorhabditis elegans; conditions: day 11; 50 μM; ANOVA and multiple comparisons (FIG. 8)
Description: C. elegans strain SD1347 confirmed to have nuclear and mitochondrial GFP labeling in muscle was obtained from the Caenorhabditis Genetic Center.
Synchronized worm populations were administered a single concentration of 50 μM SND compounds by exposure on NGM plates starting the day before adulthood. All plates contained 50 μM 5-Fluorodeoxyuridine (FUdR) to prevent progeny production. Animals were immobilized using NemaGel (InVivo Biosystems) and imaged within 1 hour. Worms were alive throughout imaging. For each worm imaged, one head and one tail image was collected from regions excluding the pharynx, vulva, and tip of the tail. For day 1, a single session imaged a minimum of 5 worms per condition.
For aged worms, two total biological replicates were collected, each with 5-6 worms imaged per condition. Images were obtained using a Nikon Eclipse Ti2 spinning disk confocal microscope. After processing, each image was scored blindly in replicate groups by six viewers.
Stock solutions of SND compounds were prepared by dissolving to 50 mM in DMSO. Working solutions were prepared such that the final concentration of compound in the total volume of the solid media would be 50 μM, and the DMSO concentration would not exceed 0.1% (e.g. 10 μl in a 10 mL dish). […]

C. elegans [3] = conditions: cited from earlier work
[4] = aged (Day 10) worms, weighted by the p-value

| Compound | Max life span (C. elegans [1]) | Mean life span (C. elegans [1]) | Median life span (C. elegans [1]) | Noteable GO categories enriched or depleted, Down (C. elegans [2]; Day 3) | Noteable GO categories enriched or depleted, Up (C. elegans [2]; Day 3) | Noteable GO categories enriched or depleted, Down (C. elegans [2]; Day 10) | Noteable GO categories enriched or depleted, Up (C. elegans [2]; Day 10) | Expression of genes specifically involved in axon regeneration (C. elegans [2]; Day 10 (FIGS. 4 and 5)) | Differentially expressed genes above threshold (volcano plot) (C. elegans [2]; Day 10, P-value<0.05 and fold change >2.0) | CTSB expression, fold down- (C. elegans [2]; [4]) | CTSD expression, fold down- (C. elegans [2]; [4]) | LAMP expression, fold up- (C. elegans [2]; [4]) | Expression of cathepsin orthologs cpr-1, cpr-4, cpr-9 (C. elegans [2]; day 3 (FIGS. 2 and 3)) | Insulin Signaling (IIS) Pathway components daf-18, akt-1, and daf-16 (C. elegans [2]; day 3 (FIGS. 2 and 3)) | Effect on lifespan (C. elegans [1]) | Sum of the mitochondrial fragmentation scores per image vs control (C. elegans strain SD1347) | Accumulation of dysfunctional mitochondria with age (C. elegans [3]) | Effect on lifespan (C. elegans [3]) |
| --- | --- | --- | --- | --- | --- | --- | --- | --- | --- | --- | --- | --- | --- | --- | --- | --- | --- | --- |
| CO[C@H]1C[C@@H]2CC[C@@H](C)[C@@](O)(O2)C(=O)C(=O)N2CCCC[C@H]2C(=O)O[C@H]([C@H](C)C[C@@H]2CC[C@@H](O)[C@H](OC)C2)CC(=O)[C@H](C)/C=C(\C)[C@@H](O)[C@@H](OC)C(=O)[C@H](C)C[C@H](C)/C=C/C=C/C=C/1C [Rapamycin, reference compound] | 33.0 days | 26.2 days | 26.5 days | – | – | – | – | – | – | – | – | – | – | – | – | – | – | – |
| CC(C)NC(=O)Oc1ccc2c(c1)COc1cc(OC(=O)NC(C)C)ccc1-2 [SND306] | 34.6 days | 25.8 days | 26.6 days | hydrolase activity | structural constituent of cuticle (e.g. collagen), immune response, lipid | extracellular region, immune response, response to other organism | enrichment in genes involved with axon development and regeneration; also recorded: nervous system development, neurogenesis, regulation of gene expression | upregulation | a large number of DEGs above threshold | > 5 fold | > 5 fold | > 5 fold | upregulated | slight modulation | increased the life span with statistical significance | significantly less fragmentation than the control | – | – |
| O=c1oc2cc(O)ccc2c2ccc(O)cc12 [Urolithin A, urolithin A] | – | – | – | – | – | – | – | – | – | – | – | – | – | – | – | did not reach statistical significance | prevented the accumulation of dysfunctional mitochondria with age | extended lifespan |
